{
  "source": "patent US6544964B1",
  "about": "“Method for fixing or separating ions, in particular of lead, using per(3,6-anhydro)cy-clodextrin derivatives” (priority 1997, dated 2003)",
  "key": {"[1]": {"experiment": "Affinity constant for Pb from the NMR results of examples 2 to 4", "assay_type": "binding", "conditions": "aqueous solution (D2O), 298 K", "method": "(§1) To an aqueous solution of the permethyl derivative obtained in example 1 is added an aqueous lead nitrate solution in order to obtain an aqueous solution containing 3 mmole/l of permethyl derivative and 1 mmole/l of lead nitrate. The solution obtained is analyzed by nuclear magnetic resonance under the same conditions as in example 1 (500 MHz, D2O, 298 K).\n(§2) The same operating procedure as in example 2 is followed, but the aqueous solution incorporates 3 mmole/l of the permethyl derivative of example 1 and 3 mmole/l of lead nitrate.\n(§3) The same operating procedure as in example 3 is followed, but addition also takes place of sodium nitrate so as to obtain an aqueous solution incorporating 3 mmole/l of the permethyl derivative of example 1, 3 mmole/l of lead nitrate and 3 mmole/l of sodium nitrate."}, "[2]": {"experiment": "Formation of the lead complex in aqueous solution, followed by proton NMR", "assay_type": "binding", "method": "as §1\nIn this case, the exchange is sufficiently slow compared with the NMR observation time, to observe the two signals corresponding to the free cyclodextrin (FIG. 1(a)) and to the complex (FIG. 1(b)).\nas §2, §3"}},
  "data": [
    {"substance": "Hexakis (3,6-Anhydro-2-0-methyl)cyclomaltohexaose [Example 1]", "values": [
      {"measurement": "affinity constant for Pb", "setting": "[1]", "result": "approximately 10^5"},
      {"measurement": "NMR spectrum of the lead complex in presence of sodium ions", "setting": "[2]; 3 mmole/l derivative, 3 mmole/l lead nitrate, 3 mmole/l sodium nitrate", "result": "not modified"},
      {"measurement": "lead complexation (respective surfaces of free and complexed parts)", "setting": "[2]; 3 mmole/l permethyl derivative, 1 mmole/l lead nitrate, D2O, 298 K, 500 MHz, free:complexed 2 for 1", "result": "all the lead present is complexed"},
      {"measurement": "lead complexation (NMR signals)", "setting": "[2]; 3 mmole/l permethyl derivative, 3 mmole/l lead nitrate, D2O, 298 K", "result": "only the signals of the complex are visible"}
    ]},
    {"substance": "hexakis (3,6-anhydro)cyclomaltohexaose [reference compound]", "values": [
      {"measurement": "affinity constant for Pb", "setting": "[1]", "result": "approximately 2500"}
    ]}
  ]
}
